“Also recorded” adds a separate entry of the source. Read-outs that look alike come from different tables or passages of the source.
How the values were obtained:
miR-29a = experiment: qPCR of miR-29a expression in human dermal fibroblasts; assay type: cell-based; settings: 24 hours, 0.1, 1 and 10 uM
Protocol: An additional secondary screen was performed to further validate activity of UCUF-728 as a selective CXCR4 receptor modulator. Human diabetic and non-diabetic fibroblasts were cultured with increasing concentrations of the compound. The cells were incubated for 24 hours and then total cellular RNA was isolated to examine the ability of the compound to correct the abnormal expression of miR15b, and miR29a. It has been shown that human diabetic skin has increased miR-15b expression at baseline compared to non-diabetic skin (Xu et al. “The role of microRNA-15b in the impaired angiogenesis in diabetic wounds.” Wound Repair Regen 2014; 22(5):671-7).
Diabetic and non-diabetic fibroblasts were cultured with increasing concentrations of a UCUF-965 compound. The cells were incubated for 24 hours and then total cellular RNA was isolated to examine the ability of the compound to correct the abnormal expression of miR15b, and miR29a. Angiogenesis is regulated by hypoxia and the production of growth factors such as Hypoxia-inducible Factor 1-alpha (HIF-1a) and Vascular Endothelial Growth Factor (VEGF). […] MicroRNA-15b (miR-15b) has been described as a key negative modulator of angiogenesis. Under hypoxia, miR-15b is repressed, resulting in an increased level of VEGF. Over-expression of miR-15b also markedly attenuates hypoxia induced vessel tube formation and cell migration. […]

[1] = tested on: CEM-CCRF human lymphoblast cells; experiment: Transwell migration assay in CEM-CCRF lymphoblasts; assay type: cell-based
In short: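 CEM-CCRF cells at 5.0×10^5 cells/mL in RPMI 1640, preincubated 1 h at 37 °C, 5% CO2, then allowed to migrate in a 96-well transwell system for 3 h at 37 °C. Migrated cells in the receiver tray quantified by ATPLite luminescence.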

SMILES | miR-29a expression (miR-29a; listed as UCUF-728) | migration activity (words) ([1]; listed as UCUF-728) | miR-29a expression (miR-29a; listed as UCUF-965) | fold lower potency in migration vs β-arrestin recruitment assay [1] [fold] | migration activity (words) [1] | EC50 ([1]; Homo sapiens, read-out: Migration log EC50, log value, n=3 (converted)) [nM] | Migration CEM Emax (%) ([1]; listed as UCUF-965) | EC50 ([1]; read-out: Migration CEM EC50, listed as UCUF-965) [nM]
COc1ccc(OC)c(NS(=O)(=O)c2ccc(-c3cnc(C4CC4)o3)cc2)c1 [Oxazole Entry 19, 4-(2-Cyclopropyloxazol-5-yl)-N-(2,5-dimethoxyphenyl)benzenesulfonamide] | significant decrease in miR-29a expression level; also recorded: reduced miR-29a expression | induced migration with similar EC50 and Emax as the B-arrestin recruitment activity; also recorded: SDF-1α-mediated response was potentiated; also recorded: dose-dependent partial activation of CEM-CCRF cell migration | – | – | – | – | – | –
CCOc1ccccc1-c1nnc2n1N=C(c1ccc(N3CCCC3)cc1)CS2 [Thiadiazine Entry 23, 3-(2-ethoxyphenyl)-6-(4-(pyrrolidin-1-yl)phenyl)-7H-[1,2,4]triazolo[3,4-b][1,3,4]thiadiazine] | – | – | significant decrease in miR-29a; also recorded: decreased | 10 | partial activator of CXCR4-mediated cell migration | 398 | 31 | 400

From US20250136617A1 (The Regents of the University of Colorado, A Body Corporate, priority 2022, published 2025)
